Measured values taken from ChEMBL document CHEMBL1201862, “PubChem BioAssay data set” (2004).
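Five concentrations, 48 hours, 96-well plates. At the GI50, growth is halved.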 The source made the active and inactive calls. Rule as the data show it: active = GI50 up to about 1.1 µM and inactive = higher.

How the values were obtained:
Assay in all cases: NCI tumour cell line growth inhibition, 48 h
[1] = test system: OVCAR-3
[2] = test system: SK-MEL-28
[3] = test system: IGROV-1
[4] = test system: UACC-257
[5] = test system: OVCAR-4
[6] = test system: SF-268
[7] = test system: NCI-H460
[8] = test system: HOP-62
[9] = test system: U-251
[10] = test system: UACC-62
[11] = test system: MDA-MB-231
[12] = test system: SNB-75
[13] = test system: HOP-92
[14] = test system: NCI-H226
[15] = test system: SF-295
[16] = test system: M14
[17] = test system: BT-549
[18] = test system: Hs-578T
[19] = test system: PC-3
[20] = test system: CCRF-CEM

Measured: GI50

NCCNCC1CCNCC1
inactive: [1] > 100 µM | [2] > 100 µM | [3] > 100 µM | [4] > 100 µM | [5] > 100 µM | [6] > 100 µM | [7] > 100 µM | [8] > 100 µM | [9] > 100 µM | [10] > 100 µM | [11] > 100 µM | [12] > 100 µM | [13] > 100 µM | [14] > 100 µM | [15] > 100 µM | [16] > 100 µM | [17] > 100 µM | [18] > 100 µM | [19] > 100 µM

CNc1ccc(Cl)cc1S(=O)(=O)c1ccccc1[N+](=O)[O-]
inactive: [1] > 100 µM | [20] > 100 µM | [2] > 100 µM | [3] > 100 µM | [5] 99.3 µM | [6] > 100 µM | [7] > 100 µM | [8] > 100 µM | [9] > 100 µM | [10] > 100 µM | [11] > 100 µM | [12] > 100 µM | [14] > 100 µM | [15] > 100 µM | [16] > 100 µM | [17] > 100 µM | [18] 31.1 µM | [19] > 100 µM

Cc1ccc(C)n1-n1c(Cc2ccc(Cl)cc2)n[nH]c1=O
inactive: [1] 54.5 µM | [20] 36.6 µM | [2] > 100 µM | [3] > 100 µM | [4] 74.8 µM | [5] > 100 µM | [6] > 100 µM | [7] > 100 µM | [8] > 100 µM | [9] 77.6 µM | [10] > 100 µM | [11] > 100 µM | [12] > 100 µM | [14] 84.7 µM | [15] 66.2 µM | [16] > 100 µM | [17] 71.1 µM | [18] > 100 µM | [19] 39.2 µM

O=C(CC(=O)n1nc(-c2ccccc2)c(/N=N/c2ccccc2C(=O)O)c1-c1ccccc1)Nc1ccc(Cl)cc1
inactive: [2] 52.8 µM | [3] 1.5 µM | [4] 32 µM | [7] 19.2 µM | [8] 19.6 µM | [9] 19.2 µM | [10] 77.1 µM | [11] 33.3 µM | [12] 27.9 µM | [13] 5.9 µM | [14] 30.6 µM | [16] 55.8 µM | [17] 24.7 µM | [18] 35.6 µM | [19] 27.5 µM

CC#CC(=O)SCCNC(=O)CC
inactive: [1] > 10 µM | [20] 3.05 µM | [2] > 8.71 µM | [3] > 10 µM | [4] > 10 µM | [5] 4.48 µM | [6] > 10 µM | [7] > 10 µM | [8] > 10 µM | [9] > 10 µM | [10] > 9.44 µM | [11] > 10 µM | [12] > 10 µM | [14] > 10 µM | [15] > 10 µM | [16] > 8.05 µM | [17] 3.81 µM | [18] > 10 µM | [19] > 10 µM

c1ccc(N/N=N/c2ccc(-c3nc4ccccc4o3)cc2)nc1
inactive: [1] 27.3 µM | [2] 61.5 µM | [3] 28.6 µM | [4] 29.7 µM | [5] 36 µM | [6] 83.6 µM | [7] 30.5 µM | [8] 55.8 µM | [9] 37.9 µM | [10] 40.8 µM | [11] 36.6 µM | [12] 20.4 µM | [13] 54.6 µM | [16] 60.7 µM | [17] 28.8 µM | [18] 77.8 µM | [19] 30.1 µM

CCOC(=O)CSc1nc2ccccc2c(=O)n1N
inactive: [1] > 100 µM | [2] > 100 µM | [3] > 100 µM | [4] > 100 µM | [5] > 100 µM | [6] > 100 µM | [7] 83.4 µM | [9] > 100 µM | [10] > 100 µM | [11] > 100 µM | [12] > 100 µM | [13] > 100 µM | [14] > 100 µM | [15] > 100 µM | [16] > 100 µM | [17] > 100 µM | [18] > 100 µM | [19] > 100 µM

CCOC(=O)/C=C(/C(=O)OCC)n1c(=O)c(C)cn(C2CC(N=[N+]=[N-])C(CO)O2)c1=O (stereo unspecified)
inactive: [1] 19.5 µM | [2] 29.4 µM | [3] 37.3 µM | [4] 22.1 µM | [5] 32.6 µM | [6] 44.8 µM | [7] 47.4 µM | [8] 59.7 µM | [9] 18 µM | [10] 85.9 µM | [11] 20.7 µM | [12] 56.9 µM | [13] 30.8 µM | [14] 45.4 µM | [15] 79.6 µM | [16] 26.4 µM | [17] 48.6 µM | [18] 51.2 µM | [19] 13.5 µM

CN(C)CCn1c2c(c3ccccc31)CCc1ccccc1-2
inactive: [1] 14.6 µM | [20] 18.7 µM | [2] 15.8 µM | [3] 10 µM | [4] 14.6 µM | [5] 14.3 µM | [6] 17.9 µM | [7] 14.4 µM | [8] 15.7 µM | [9] 13.6 µM | [10] 13 µM | [11] 13.9 µM | [13] 14 µM | [14] 12.8 µM | [15] 16.9 µM | [16] 13.5 µM | [17] 14.5 µM | [18] 15.1 µM | [19] 11.4 µM

Cc1ccc2c(c1)OC1Nc3ccccc3C1=C2O (stereo unspecified)
inactive: [1] 3.86 µM | [2] 53.7 µM | [3] 29.9 µM | [4] 22.2 µM | [5] 40.4 µM | [6] 40 µM | [7] 20.2 µM | [8] 27.4 µM | [9] 20.4 µM | [10] 15.9 µM | [11] 20.6 µM | [12] 23.2 µM | [13] 38.9 µM | [14] 20.7 µM | [15] 21.6 µM | [16] 21.5 µM | [17] 19.7 µM | [18] 73.8 µM | [19] 16.3 µM

CC(=O)N1c2ccccc2C(C)C1c1[nH]c2ccccc2c1C (stereo unspecified)
inactive: [1] 19.5 µM | [20] 25.6 µM | [2] 20.3 µM | [3] 24.1 µM | [4] 18.1 µM | [5] 23.4 µM | [6] 23.4 µM | [7] 19.3 µM | [8] 19.2 µM | [9] 20.5 µM | [10] 18.4 µM | [11] 18.6 µM | [12] 19.8 µM | [14] 25.3 µM | [15] 15 µM | [16] 18.7 µM | [17] 22.5 µM | [18] 16.6 µM | [19] 31.3 µM
